Legend:
[1] = system: SHR rats; assay: 4-week evaluation of blood pressure lowering effect (non-invasive tail systolic and diastolic blood pressure); format: in vivo, rat; details: for Diastolic blood pressure at 1st week after administration / Diastolic blood pressure at 2nd week after administration / Diastolic blood pressure at 3rd week after administration / Diastolic blood pressure at 4th week after administration / Systolic blood pressure at 1st week after administration / Systolic blood pressure at 2nd week after administration / Systolic blood pressure at 3rd week after administration / Systolic blood pressure at 4th week after administration: oral once daily; for Diastolic blood pressure immediately after administration / Systolic blood pressure immediately after administration: oral, mean of 8 rats
Description: As experimental animals, 6-week-old male SHR rats were used (however, WKY rats were used as a normal control). A method for measurement of blood pressure is as follows: […] The rats were divided into total 7 groups according to the kind of drug to be administered, and eight rats were randomly assigned to each group. The groups administered with each drug are as follows: (3) a group administered with test substance 1 (G3): a group administered with a combination of 2 mg/kg/day of olmesartan medoxomil+1 mg/kg/day of dapagliflozin; (4) a group administered with test substance 2 (G4): a group administered with a combination of 2 mg/kg/day of olmesartan medoxomil+3 mg/kg/day of dapagliflozin; (5) a group administered with comparative substance 1 (G5): a group administered with 2 mg/kg/day of olmesartan medoxomil alone; (6) a group administered with comparative substance 2 (G6): a group administered with 1 mg/kg/day of dapagliflozin alone; (7) a group administered with […]: a group administered with 3 mg/kg/day of dapagliflozin alone. (* In this Experimental Example, dapagliflozin was administered in an anhydride form, not a solvate form). For drug administration, each drug was forcibly administered into the rat's stomach through a disposable syringe with an oral zonde at a predetermined dose at the same time every day. As test substances, olmesartan medoxomil was administered, and then immediately dapagliflozin was administered. The doses of the antihypertensive drug and the antidiabetic drug were determined considering the doses to be applied in clinical practice.

[2] = system: spontaneously hypertensive rats (SHRs); assay: 2-week evaluation of blood pressure lowering effect (non-invasive tail blood pressure, CODA-6); format: in vivo, rat; details: olmesartan medoxomil 1, valsartan 4, telmisartan 4, dapagliflozin (as propylene glycol hydrate) 1 mg/kg/day; for Systolic blood pressure immediately before administration: 10-week-old SHR, baseline, mean of 5 rats; for Size of blood pressure reduction / Systolic blood pressure at 14th day after administration: SHR; for Size of blood pressure reduction: 14th day versus before administration; for Systolic blood pressure at 14th day after administration: once daily for 14 days, measured 2 hours after dosing
Description: The SHR rats are rats derived from Wistar Kyoto WKY) rats with normal blood pressure, and are rats that spontaneously develop hypertension with aging without any artificial treatment. […] The blood pressure in the experimental animals was measured using a CODA-6 system (Kent Scientific Corp.) which is a non-invasive blood pressure (NIBP) measurement system. […] The rats were divided into total 7 groups according to the kind of drug to be administered, and five rats were randomly assigned to each group. The groups administered with each drug are as follows: (2) a group administered with 1 mg/kg/day of olmesartan medoxomil alone; (3) a group administered with 4 mg/kg/day of valsartan alone; (4) a group administered with 4 mg/kg/day of telmisartan alone; (5) a group administered with a combination of 1 mg/kg/day of olmesartan medoxomil+1 mg/kg/day of dapagliflozin; (6) a group administered with a combination of 4 mg/kg/day of valsartan+1 mg/kg/day of dapagliflozin; (7) a group administered with a combination of 4 mg/kg/day of telmisartan+1 mg/kg/day of dapagliflozin. (*In this Example, a dapagliflozin propylene glycol hydrate corresponding to 1 mg of dapagliflozin was administered actually). For drug administration, each drug was administered to each rat once a day at a predetermined dose at the same time every morning. Considering that the amounts of antihypertensive drugs used in humans are different, the antihypertensive drugs were administered at different doses.

[3] = SHR, 1st to 4th week, olmesartan medoxomil 2 mg/kg/day with (G3) or without (G5) dapagliflozin 1 mg/kg/day
[4] = SHR, olmesartan medoxomil 2 mg/kg/day and/or dapagliflozin 1 mg/kg/day (G3, G5, G6)
[5] = p<0.01 at 1st, 2nd, 3rd and 4th week, olmesartan medoxomil 2 mg/kg/day with (G3) or without (G5) dapagliflozin 1 mg/kg/day
[6] = SHR, dapagliflozin 3 mg/kg/day with (G4) or without (G7) olmesartan medoxomil 2 mg/kg/day

| Compound | Diastolic blood pressure at 1st week after administration [1, 4] | Diastolic blood pressure at 2nd week after administration [1, 4] | Diastolic blood pressure at 3rd week after administration [1, 4] | Diastolic blood pressure at 4th week after administration [1, 4] | Systolic blood pressure at 1st week after administration [1, 4] | Systolic blood pressure at 2nd week after administration [1, 4] | Systolic blood pressure at 3rd week after administration [1, 4] | Systolic blood pressure at 4th week after administration [1, 4] | Diastolic blood pressure immediately after administration [1, 4] | Systolic blood pressure immediately after administration [1, 4] | Systolic blood pressure immediately before administration [2] | Size of blood pressure reduction [2] | Systolic blood pressure at 14th day after administration [2] | also measured |
| --- | --- | --- | --- | --- | --- | --- | --- | --- | --- | --- | --- | --- | --- | --- |
| CCCc1nc(C(C)(C)O)c(C(=O)OCc2oc(=O)oc2C)n1Cc1ccc(-c2ccccc2-c2nnn[nH]2)cc1 [Olmesartan medoxomil, olmesartan medoxomil] | 127 mmHg | 153 mmHg | 153 mmHg | 172 mmHg | 159 mmHg | 181 mmHg | 178 mmHg | 190 mmHg | 140 mmHg | 171 mmHg | 202 mmHg | 39 mmHg | 163 mmHg | Range of mean diastolic blood pressure [1, 3]: 127 to 172 mmHg; Range of mean systolic blood pressure [1, 3]: 159 to 190 mmHg; Mean diastolic blood pressure compared with negative control group (G2) [1, 5]: statistically significantly lower; Mean systolic blood pressure compared with negative control group (G2) [1, 5]: statistically significantly lower |
| CCCc1nc2c(C)cc(-c3nc4ccccc4n3C)cc2n1Cc1ccc(-c2ccccc2C(=O)O)cc1 [Telmisartan, telmisartan] |  |  |  |  |  |  |  |  |  |  | 203 mmHg | 35 mmHg | 168 mmHg |  |
| CCCCC(=O)N(Cc1ccc(-c2ccccc2-c2nnn[nH]2)cc1)[C@H](C(=O)O)C(C)C [Valsartan, valsartan] |  |  |  |  |  |  |  |  |  |  | 200 mmHg | 30 mmHg | 170 mmHg |  |
| CCOc1ccc(Cc2cc([C@@H]3O[C@H](CO)[C@@H](O)[C@H](O)[C@H]3O)ccc2Cl)cc1 [dapagliflozin] | 154 mmHg | 179 mmHg | 175 mmHg | 187 mmHg | 185 mmHg | 213 mmHg | 204 mmHg | 211 mmHg | 142 mmHg | 172 mmHg |  |  |  | Diastolic blood pressure at 1st week after administration [1, 6]: 149 mmHg; Diastolic blood pressure at 2nd week after administration [1, 6]: 188 mmHg; Diastolic blood pressure at 3rd week after administration [1, 6]: 204 mmHg; Diastolic blood pressure at 4th week after administration [1, 6]: 186 mmHg; Systolic blood pressure at 1st week after administration [1, 6]: 189 mmHg; Systolic blood pressure at 2nd week after administration [1, 6]: 219 mmHg; Systolic blood pressure at 3rd week after administration [1, 6]: 228 mmHg; Systolic blood pressure at 4th week after administration [1, 6]: 212 mmHg; Diastolic blood pressure immediately after administration [1, 6]: 139 mmHg; Systolic blood pressure immediately after administration [1, 6]: 172 mmHg |
